Measured values: ChEMBL document CHEMBL1201862, “PubChem BioAssay data set” (2004)
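Interpolation was linear, between the two tested concentrations surrounding the appropriate level; five concentrations were tested over 48 hours in 96-well plates. GI50 marks 50% less growth.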 Activity calls are given as the source filed them. Cut-off read from the data, not from the text of the source: active = GI50 up to about 1.1 µM and inactive = higher.

What was measured:
Experiment in all cases: inhibition of tumour cell growth, NCI panel, 48 h
SK-MEL-5 = tested on: SK-MEL-5
NCI/ADR-RES = tested on: NCI/ADR-RES
OVCAR-5 = tested on: OVCAR-5
CCRF-CEM = tested on: CCRF-CEM
HOP-92 = tested on: HOP-92
NCI-H23 = tested on: NCI-H23
SNB-75 = tested on: SNB-75
UACC-62 = tested on: UACC-62
KM-20L2 = tested on: KM-20L2
DLD-1 = tested on: DLD-1
RPMI-8226 = tested on: RPMI-8226
DMS-273 = tested on: DMS-273
IGROV-1 = tested on: IGROV-1
NCI-H460 = tested on: NCI-H460
NCI-H522 = tested on: NCI-H522
A549 = tested on: A549
NCI-H226 = tested on: NCI-H226
SK-MEL-2 = tested on: SK-MEL-2
DMS-114 = tested on: DMS-114
HCT-116 = tested on: HCT-116
SNB-78 = tested on: SNB-78
HCT-15 = tested on: HCT-15
M19-MEL = tested on: M19-MEL
HOP-62 = tested on: HOP-62
HOP-18 = tested on: HOP-18
HCC 2998 = tested on: HCC 2998
SN12C = tested on: SN12C
MOLT-4 = tested on: MOLT-4
OVCAR-4 = tested on: OVCAR-4
XF498 = tested on: XF498
UACC-257 = tested on: UACC-257
Malme-3M = tested on: Malme-3M
KM12 = tested on: KM12
SW-620 = tested on: SW-620
M14 = tested on: M14
EKVX = tested on: EKVX
OVCAR-8 = tested on: OVCAR-8
U-251 = tested on: U-251
SF-295 = tested on: SF-295
A498 = tested on: A498
RXF 393 = tested on: RXF 393
ACHN = tested on: ACHN
786-0 = tested on: 786-0
SF-268 = tested on: SF-268
TK-10 = tested on: TK-10
SR = tested on: SR
HT-29 = tested on: HT-29
SF-539 = tested on: SF-539
SK-MEL-28 = tested on: SK-MEL-28
LXFL 529 = tested on: LXFL 529
UO-31 = tested on: UO-31
K562 = tested on: K562
SNB-19 = tested on: SNB-19
COLO 205 = tested on: COLO 205
SK-OV-3 = tested on: SK-OV-3
HL-60 = tested on: HL-60
OVCAR-3 = tested on: OVCAR-3
LOX IMVI = tested on: LOX IMVI

## O=C1C=C2C(=CCOC2O)O1 (stereo unspecified) [PATULIN]
SK-MEL-5
  GI50: 1 µM (active)
NCI/ADR-RES
  GI50: 0.733 µM (active)
OVCAR-5
  GI50: 7.4 µM (inactive)
CCRF-CEM
  GI50: 0.158 µM (active)
HOP-92
  GI50: 3.08 µM (inactive)
NCI-H23
  GI50: 1.15 µM (inactive)
SNB-75
  GI50: 4.28 µM (inactive)
UACC-62
  GI50: 0.851 µM (active)
KM-20L2
  GI50: 2.28 µM (inactive)
DLD-1
  GI50: 0.456 µM (active)
RPMI-8226
  GI50: 0.189 µM (active)
DMS-273
  GI50: 0.881 µM (active)
IGROV-1
  GI50: 2.1 µM (inactive)
NCI-H460
  GI50: 1.16 µM (inactive)
NCI-H522
  GI50: 0.365 µM (active)
A549
  GI50: 4.1 µM (inactive)
NCI-H226
  GI50: 3.49 µM (inactive)
SK-MEL-2
  GI50: 1.37 µM (inactive)
DMS-114
  GI50: 1.08 µM (active)
HCT-116
  GI50: 0.223 µM (active)
SNB-78
  GI50: 2.32 µM (inactive)
HCT-15
  GI50: 0.668 µM
M19-MEL
  GI50: 1.29 µM (inactive)
HOP-62
  GI50: 10.6 µM (inactive)
HOP-18
  GI50: 1.98 µM (inactive)
HCC 2998
  GI50: 1.15 µM (inactive)
SN12C
  GI50: 0.618 µM (active)
MOLT-4
  GI50: 0.368 µM (active)
OVCAR-4
  GI50: 2.84 µM (inactive)
XF498
  GI50: 0.267 µM (active)
UACC-257
  GI50: 0.723 µM (active)
Malme-3M
  GI50: 1.12 µM (active)

## c1ccc2c(c1)nnn2CNc1ccc(N2CCCCC2)cc1
KM12
  GI50: > 100 µM (inactive)
CCRF-CEM
  GI50: 77.1 µM (inactive)
HOP-92
  GI50: > 100 µM (inactive)
NCI-H23
  GI50: > 100 µM (inactive)
SNB-75
  GI50: > 100 µM (inactive)
UACC-62
  GI50: > 100 µM (inactive)
SW-620
  GI50: > 100 µM (inactive)
M14
  GI50: > 100 µM (inactive)
EKVX
  GI50: > 100 µM (inactive)
OVCAR-8
  GI50: > 100 µM (inactive)
U-251
  GI50: > 100 µM (inactive)
SF-295
  GI50: > 100 µM (inactive)
A498
  GI50: > 100 µM (inactive)
RXF 393
  GI50: > 100 µM (inactive)
KM-20L2
  GI50: > 100 µM (inactive)
ACHN
  GI50: > 100 µM (inactive)
786-0
  GI50: > 100 µM (inactive)
DLD-1
  GI50: > 100 µM (inactive)
RPMI-8226
  GI50: 68.2 µM (inactive)
DMS-273
  GI50: > 100 µM (inactive)
IGROV-1
  GI50: > 100 µM (inactive)
NCI-H460
  GI50: > 100 µM (inactive)
SF-268
  GI50: > 100 µM (inactive)
NCI-H522
  GI50: > 100 µM (inactive)
TK-10
  GI50: > 100 µM (inactive)
SR
  GI50: 62.7 µM (inactive)
A549
  GI50: > 100 µM (inactive)
HT-29
  GI50: > 100 µM (inactive)
SF-539
  GI50: > 100 µM (inactive)
NCI-H226
  GI50: > 100 µM (inactive)
SK-MEL-2
  GI50: > 100 µM (inactive)
DMS-114
  GI50: > 100 µM (inactive)
HCT-116
  GI50: > 100 µM (inactive)
SNB-78
  GI50: > 100 µM (inactive)
SK-MEL-28
  GI50: > 100 µM (inactive)
HCT-15
  GI50: > 100 µM
LXFL 529
  GI50: > 100 µM (inactive)
UO-31
  GI50: > 100 µM (inactive)
K562
  GI50: > 100 µM (inactive)
SNB-19
  GI50: > 100 µM (inactive)
HOP-62
  GI50: > 100 µM (inactive)
HOP-18
  GI50: > 100 µM (inactive)
COLO 205
  GI50: > 100 µM (inactive)
HCC 2998
  GI50: > 100 µM (inactive)
SK-OV-3
  GI50: > 100 µM (inactive)
SN12C
  GI50: > 100 µM (inactive)
HL-60
  GI50: 45.3 µM (inactive)
OVCAR-3
  GI50: > 100 µM (inactive)
MOLT-4
  GI50: > 100 µM (inactive)
LOX IMVI
  GI50: > 100 µM (inactive)
OVCAR-4
  GI50: > 100 µM (inactive)
XF498
  GI50: > 100 µM (inactive)
UACC-257
  GI50: > 100 µM (inactive)
Malme-3M
  GI50: > 100 µM (inactive)
